According to patent US9096543B2, “Nuclear transport modulators and uses thereof” (Karyopharm Therapeutics Inc., priority 2012, dated 2015):

Experiments:
[1] = test system: inflammation-related CRM1 cargo proteins: IκB, Nrf2, HMGB1, FoxP3, FOXO1a, RxRα, PPARγ and NFκB (p65 subunit); assay: Immunofluorescence of nuclear localization of inflammation-related CRM1 cargos in HeLa and THP-1 cells; type: cell-based, human; conditions: 1-10 μM Compound 1 with 20 ng/mL TNFα, 4-24 h
Method: HeLa and THP-1 (human acute monocytic leukemia) cells were treated with inflammation inducing factor, TNFα, alone or in combination with 1-10 μM of Compound 1 for 4-24 h, and then were analyzed by immunofluorescence (IF) for the nuclear localization of inflammation-related CRM1 cargo proteins: IκB, Nrf2, HMGB1, FoxP3, FOXO1a, RxRα, PPARγ and NFκB (p65 subunit).
For the detection of IkB, Nrf2, RxRα and PPARγ localization, cells were pre-incubated with 10 μM Compound 1 for 30 minutes, followed by incubation with 20 ng/mL TNFα for 4 hrs in serum free media. For detection of HMGB1, FoxP3 and Foxo1A, cells were pre-incubated with 1 μM of Compound 1 for 2 h, followed by incubation with 20 ng/mL TNFα for 24 hours. […] IκB was detected by the primary rabbit monoclonal (E130) antibody from Abcam (ab32518); Nrf2 was detected by the primary rabbit polyclonal antibody from Santa Cruz (sc722); RxR alpha was detected by the primary rabbit polyclonal antibody from Santa Cruz (sc553); PPAR gamma was detected by the primary rabbit monoclonal […] antibody from Cell Signaling (#2443); Foxo1A was detected by the primary rabbit monoclonal [C29H4] antibody from Cell Signaling (#2880); HMGB1 was detected by the primary rabbit polyclonal antibody from Abcam (ab18256); FoxP3 was detected by the primary rabbit polyclonal antibody from Abeam (ab10563). […]

A549 xenograft tumors = assay: A549 lung carcinoma xenograft model; type: in vivo, CB-17 SCID mice
Method: The A549 cell line was derived from explant culture of alveolar carcinoma tissue from a person. The cells were grown in Ham's F12-K tissue culture media with 10% fetal calf serum and 1% penicillin/streptomycin. Cells were routinely trypsinized and passaged 1:10. Thirty-two (32) female CB-17 SCID mice (Charles River Labs strain code 236), aged 5 to 6 weeks were used with a mean pre-treatment body weight of 16.3 grams. Mice were divided into four (4) groups of eight (8) prior to the initiation of treatment based on tumor volume. On the day of implantation, cells were washed in PBS, trypsinized and resuspended in complete media to a density of 2×10^7 cells/mL prior to being mixed with an equal volume of Matrigel. This mixture was then inoculated subcutaneously into mice in a volume of 0.1 mL using a 23 G needle.
Animal weights and condition were recorded daily, and tumors were measured on Mondays, Wednesdays and Fridays with micro-calipers, and tumor volume was calculated as (length×width×width)/2.
Animals with weight loss of more than 20% of their starting weight were euthanized. Mice with weight loss of more than 15% of their starting weight were not treated again until weight loss recovered to less than 5% of their starting weight. Any animals with a tumor volume of more than 1500 mm^3 were euthanized.
Dosing solutions were prepared fresh on each day of dosing. Compound 2 was supplied as a lyophilized powder containing 69.61% Compound 2 with the balance made up of Pluronic F-68 and PVP K29/32. This was prepared by dissolving the lyophilized powder in sterile water. Cisplatin was dissolved at 5 mg/mL in DMSO and diluted 1:10 in sterile water for injection. All test articles were administered in a volume of 0.1 mL/10 g body weight.
Statistical differences between treatment groups were determined using Mann-Whitney Rank Sum or ANOVA tests with a critical value of 0.05.

[2] = test system: anti-collagen antibody induced arthritis; assay: Anti-collagen antibody induced mouse model of rheumatoid arthritis (CAIA); type: in vivo, Balb/c mice
Method: Twenty-four (24) male Balb/c mice, aged 6 to 8 weeks were used. […] On study Day 0 (study commencement), all mice were subjected to a 2 mg intravenous injection of ArthritoMAb™ antibody cocktail (MD Biosciences #S1203001) followed by an intraperitoneal injection of LPS (100 μg/mouse) on study Day 3. […] Treatments were administered once daily on days 4, 6, 8 and 10 for all groups, except where dosing vacations applied. If an animal's weight dropped below 87% of its day 0 starting weight, the animal was not dosed until it gained weight equivalent to 90% or more of day 0 weight.
Arthritis development, clinical signs and body weights were monitored in all mice on study days 0, 3-8, 10 and 12. Observations included changes in skin, fur, eyes, mucous membranes, occurrence of secretions and excretions (e.g., diarrhea) and autonomic activity (e.g., lacrimation, salivation, piloerection, pupil size, unusual respiratory pattern). All paws (front left and right, and rear left and right) of each animal were examined for signs of arthritogenic responses prior to arthritis induction and test item or control item administration on study Day 0 and subsequently on study Days 3-8, 10 and 12 (study termination). A rthritis reactions were scored and recorded according to a 0-4 scale in ascending order of severity, as shown Table 5 below. Paw thickness was also measured using a dial caliper (Kroeplin, Munich, Germany).
The dose administered was calculated based on the assumption that the animals weighed, on average, 20 g. […] Vehicle for the vehicle control group was prepared by dissolving 0.6 g Pluronic and 0.6 g PVP in 100 mL distilled deionised water. The MAb stock solution (10 mg/mL) was supplied by MD Biosciences, Division of Morwell Diagnostics GmbH. LPS was diluted with PBS to achieve the appropriate concentration. Thorough vortexing was required just prior to its injection. […] A fixed volume of 200 μL was administered to each mouse.
Evaluation was primarily based on the mean values for arthritis scoring and paw thickness measurements. […]

Row | SMILES | nuclear localization of inflammation-related CRM1 cargo proteins [1] | tumor volume AUC compared to vehicle control (one-way ANOVA) (A549 xenograft tumors; Compound 2 10 mg/kg PO, p=0.0005, 10 mg/kg) | antitumor effect (A549 xenograft tumors; Compound 2 orally, 5 and 10 mg/kg) | anti-arthritic activity ([2]; 7.5 mg/kg or 4 mg/kg orally) | days on which rear paw arthritis score was significantly reduced compared to vehicle ([2]; 7.5 mg/kg or 4 mg/kg orally) | days on which total arthritis score was significantly reduced compared to vehicle ([2]; 7.5 mg/kg orally, days 4, 6, 8, 10)
1 | CC(C)(C)C(=O)NNC(=O)/C=C\n1cnc(-c2cc(C(F)(F)F)cc(C(F)(F)F)c2)n1 [Compound 1, (Z)-3-(3-(3,5-bis(trifluoromethyl)phenyl)-1H-1,2,4-triazol-1-yl)-N′-pivaloylacrylohydrazide] | demonstrate nuclear localization of the above cargos |  |  |  |  | 
2 | O=C(/C=C\n1cnc(-c2cc(C(F)(F)F)cc(C(F)(F)F)c2)n1)NNC(=O)CN1CCOCC1 [Compound 2, (Z)-3-(3-(3,5-bis(trifluoromethyl)phenyl)-1H-1,2,4-triazol-1-yl)-N′-(2-morpholinoacetyl)acrylohydrazide] |  | statistically significant difference | had an antitumor effect at both 5 mg/kg and 10 mg/kg doses in a dose dependent manner | exhibited significant anti-arthritic activity | 5-12 | 5-12
